Reference: patent US12122774B2, “Compounds as MYT1 inhibitors” (WIGEN BIOMEDICINE TECHNOLOGY (SHANGHAI) CO., LTD., priority 2022, dated 2024)
≈ marks a conversion by molar mass, not a printed value.

How the values were obtained:
MIA PaCa-2 cells [1] = experiment: In vitro anti-proliferative activity against MIA PaCa-2 cells (compound alone); format: cell-based; settings: Homo sapiens, MIA PaCa-2, 72 h, intracellular ATP content
Description: (§1) MIA PaCa-2 cells were seeded on a 384-well plate at 3000 cells/well. After overnight adherence culture, DMSO or the compounds serially diluted 1:5 from 10 µM were added. The viability was assessed 72 h after dosing by measuring the intracellular ATP content. The inhibition percentage of viable cells by the compounds was calculated by comparing with the DMSO group, and the IC50 value was calculated.

MIA PaCa-2 cells [2] = experiment: In vitro anti-proliferative activity in combination with gemcitabine against MIA PaCa-2 cells; format: cell-based; settings: for IC50: read-out: Anti-proliferative activity against MIA PaCa-2 cells (20 nM gemcitabine) IC50, with 20 nM gemcitabine, 72 h, intracellular ATP content
Description: as §1, with “cells/well, and 20 nM gemcitabine was added.” for “cells/well.”, “1000 nM” for “10 µM”

Recombinant MYT1 protein = biological target: T1, Recombinant MYT1 protein (Homo sapiens, UniProt Q99640); experiment: In vitro assay for inhibiting MYT1 kinase activity (ADP-GLO); format: biochemical; settings: 10 μM ATP, read-out: Inhibitory activity against recombinant protein MYT1 IC50
T1 sequence (Q99640 1-499): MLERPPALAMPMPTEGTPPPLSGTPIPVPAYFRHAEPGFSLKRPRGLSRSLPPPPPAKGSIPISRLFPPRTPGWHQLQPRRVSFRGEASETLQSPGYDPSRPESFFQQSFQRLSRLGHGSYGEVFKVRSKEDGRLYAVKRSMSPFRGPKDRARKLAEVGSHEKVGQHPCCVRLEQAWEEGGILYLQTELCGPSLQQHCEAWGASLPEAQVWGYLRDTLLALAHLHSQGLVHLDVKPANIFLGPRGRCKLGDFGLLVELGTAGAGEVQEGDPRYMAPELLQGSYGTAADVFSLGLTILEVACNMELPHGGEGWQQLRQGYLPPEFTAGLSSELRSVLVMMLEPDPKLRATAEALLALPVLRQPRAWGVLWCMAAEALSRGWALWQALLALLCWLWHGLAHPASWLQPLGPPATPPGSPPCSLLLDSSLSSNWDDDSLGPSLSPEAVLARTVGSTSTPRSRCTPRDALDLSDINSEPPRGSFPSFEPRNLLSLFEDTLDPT
Description: Recombinant MYT1 protein and the compounds were pre-incubated at room temperature for 15 min, and 10 μM ATP was then added to start the reaction. The mixture was incubated at room temperature for another 60 min, and the ADP-GLO reagent from Promega was then added. The resulting mixture was incubated in the dark for 40 min, a detection solution was then added, and the mixture was incubated for another 45-60 min. The chemiluminescence was determined using ENVISION. The inhibition rate and IC50 were calculated compared to the DMSO group.

[3] = In vivo pharmacokinetic experiment; set-up: species or system CD-1 female mice; settings: mice
Description: CD-1 female mice aged 7 to 10 weeks were intravenously administered and orally administered at a dose of 2 mg/kg and 10 mg/kg, respectively. The mice were fasted for at least 12 h before the administration and given food 4 h after the administration, and they were given ad libitum access to water during the experiment. On the day of the experiment, animals in the intravenous group were administered the corresponding compound by single injection via the tail vein at an administration volume of 10 mL/kg. Animals in the oral group were administered the corresponding compound by single intragastric injection at an administration volume of 10 mL/kg. The animals were weighed before administration, and the administration volume was calculated according to the body weight. The sample collection time was 0.083 h (injection group), 0.167 h, 0.5 h, 1 h, 2 h, 4 h, 8 h, and 24 h. About 200 μL of whole blood was collected through the submaxillary venous plexus at each time point and used to prepare plasma for concentration determination by high-performance liquid chromatography-tandem mass spectrometry (LC-MS/MS). All animals were euthanized with CO2 anesthesia after the PK samples were collected at the last time point. The plasma concentrations were processed using a non-compartmental model of Phoenix WinNonlin™ version 8.3 (Certara) pharmacokinetic software, and the pharmacokinetic parameters were calculated using a linear-log trapezoidal method.

[4] = test system: MDCK cells stably transduced with MDR1 (MDCK-MDR1); experiment: in vitro; settings: for Papp Mean / Papp Sample - 01 / Papp Sample - 02: 5 μM, 90 min
Description: (§2) In vitro passive permeability or the ability to serve as a P-glycoprotein (P-gp) transport substrate was tested using MDCK cells (MDCK wild type) or MDCK cells stably transduced with MDR1 (MDCK-MDR1), respectively. The permeability experiment was performed in duplicate in a transwell system at a single concentration (5 μM). The cells were incubated for 90 min. Apical-to-basolateral (A to B, A-B) transport and basolateral-to-apical (B to A, B-A) transport of the corresponding compound were determined, and the permeation rate (apparent permeability) (Papp×10^−6 cm/sec) and efflux ratio (Papp (B-A)/Papp (A-B)) of the test compound were calculated.

[5] = test system: P-glycoprotein (P-gp, MDR1); experiment: in vitro; settings: dog
Description: as §2

in vitro = settings: dog, MDCK
Description: as §2

[6] = In vitro solubility experiment; format: physicochemical; settings: for solubility at 0.5 h: thermodynamic from solid
Description: (§3) Preparation of a standard curve: 10.01 mg of sample was weighed out and placed in a volumetric flask, and the volume was brought to 10 mL with acetonitrile/water (v/v, 9/1) to prepare 1.001 mg/mL of standard solution; the standard solution was then serially diluted to 0.5005 mg/mL, 0.1001 mg/mL, 0.05005 mg/mL, 0.01001 mg/mL, and 0.001001 mg/mL to generate the standard curve, and a linear equation was fitted by taking the peak area of the sample as a vertical axis and the concentration as a horizontal axis. Solubility and stability test: 15 mg of sample was added to 3 mL of vehicle (FaSSIF, FeSSIF, SGF, or water) to prepare a corresponding suspension at a target concentration of 5 mg/mL. The prepared suspension was stirred on a shaker (800 rpm) at 37° C. for 0.5 h, and the suspension was then filtered. The filtrate was diluted with a diluent to a corresponding multiple so that the peak height could not exceed the standard curve, and the solubility and purity were detected using HPLC.

[7] = In vitro stability experiment (HPLC purity of filtrate); format: physicochemical
Description: as §3

[8] = In vitro solubility experiment; format: physicochemical; settings: organic solvent or mixture, thermodynamic from solid
[9] = test system: MDCK cells (MDCK wild type); experiment: In vitro permeability experiment, MDCK wild type; settings: MDCK-Wild type, 5 μM, 90 min
Description: as §2

[10] = female, CD-1, mouse, plasma, iv, injection 2 mg/kg
[11] = female, CD-1, mouse, plasma, oral administration 10 mg/kg
[12] = FaSSIF, initial pH 6.52, 37° C.
[13] = FeSSIF, initial pH 4.98, 37° C.

For `Cc1cc2c(C(N)=O)c(N)n(-c3c(C)cc4c(c3C)NCC4)c2nc1C` [Compound 150], the IC50 (MIA PaCa-2 cells [1]) was greater than 10000 nM.

`Cc1cc2c(C(N)=O)c(N)n(-c3c(C)c(O)cc(F)c3C)c2nc1C` [Compound 3] showed an IC50 (MIA PaCa-2 cells [1]) greater than 10000 nM and an IC50 (MIA PaCa-2 cells [2]) of no less than 1230 nM.

With `Cc1cc2c(C(N)=O)c(N)n(-c3c(C)c(O)cc4c3CCCC4)c2nc1C` [Compound 127] the IC50 (Recombinant MYT1 protein) was 200 to 500 nM.

Work on `Cc1cc2c(C(N)=O)c(N)n(-c3c(C)c(O)cc4c3CCC4)c2nc1C` [Compound 116] yielded an IC50 (MIA PaCa-2 cells [1]) greater than 10000 nM.

In the case of `Cc1cc2c(C(N)=O)c(N)n(-c3c(C)c(O)cc(F)c3C)c2nc1C` (single isomer, unassigned) [Compound 2], the IC50 (MIA PaCa-2 cells [1]) is reported as 4320 nM, the “Anti-proliferative activity against MIA PaCa-2 cells in combination with gemcitabine” value (MIA PaCa-2 cells [2]; in words) is reported as “stronger anti-proliferative activity than that of RP-6306” and the IC50 (MIA PaCa-2 cells [2]) is reported as 18 nM. It also gave an AUC(0-t) [3, 10] of 338 ng·h/mL, a half-life [3, 10] of 3.32 h and a Vd ([3]; female, CD-1, mouse, plasma, iv, injection 2 mg/kg, read-out: Vdss) of 6.76 L/kg. It also gave an AUC(0-t) [3, 11] of 638 ng·h/mL, a Cmax [3, 11] of 603 ng/mL and a half-life [3, 11] of 3.84 h. The Cl ([3]; injection 2 mg/kg) was 94.4 mL/min/kg, the F % ([3]; oral administration 10 mg/kg) was 44.5% and the “Half-life T1/2 compared to RP-6306” value ([3]; in words) was “longer half-life T1/2 compared to RP-6306”. The “Vdss compared to RP-6306” value ([3]; in words) was “greater increase in Vdss compared to RP-6306”, the “Permeability compared to RP-6306” value ([4]; MDCK-MDR1) was “superior permeability to that of RP-6306” and the efflux ratio at 90 min, 5 μM ([5]; MDCK-MDR1) was 1.71. It also gave a Papp A→B at 90 min, 5 µM ([5]; MDCK-MDR1, Papp Mean) of 20.5 ×10⁻⁶ cm/s, a Papp B→A at 90 min, 5 µM ([5]; MDCK-MDR1, Papp Mean) of 35 ×10⁻⁶ cm/s and a Papp A→B at 90 min, 5 µM ([5]; MDCK-MDR1, Papp Sample - 01) of 21.1 ×10⁻⁶ cm/s. For the same molecule, the Papp B→A at 90 min, 5 µM ([5]; MDCK-MDR1, Papp Sample - 01) was 35.3 ×10⁻⁶ cm/s, the Papp A→B at 90 min, 5 µM ([5]; MDCK-MDR1, Papp Sample - 02) was 19.9 ×10⁻⁶ cm/s and the Papp B→A at 90 min, 5 µM ([5]; MDCK-MDR1, Papp Sample - 02) was 34.8 ×10⁻⁶ cm/s. The efflux ratio at 90 min, 5 μM (in vitro) was 1.56, the Papp A→B at 90 min, 5 µM (in vitro; Papp Mean) was 27.1 ×10⁻⁶ cm/s and the Papp B→A at 90 min, 5 µM (in vitro; Papp Mean) was 42.2 ×10⁻⁶ cm/s. It also gave a Papp A→B at 90 min, 5 µM (in vitro; Papp Sample - 01) of 27.9 ×10⁻⁶ cm/s, a Papp B→A at 90 min, 5 µM (in vitro; Papp Sample - 01) of 40 ×10⁻⁶ cm/s and a Papp A→B at 90 min, 5 µM (in vitro; Papp Sample - 02) of 26.3 ×10⁻⁶ cm/s. The Papp B→A at 90 min, 5 µM (in vitro; Papp Sample - 02) was 44.5 ×10⁻⁶ cm/s, the “Solubility compared to RP-6306” value ([6]; FaSSIF, FeSSIF, SGF, water, methanol, and tetrahydrofuran, in words) was “higher solubility in various vehicles” and the solubility at 0.5 h ([6]; simulated gastric fluid, SGF, initial pH 1.2, 37° C.) was 4860 µg/mL (≈ 14.2 mM). The solubility at 0.5 h [6, 12] was 61 µg/mL (≈ 0.178 mM), the solubility at 0.5 h [6, 13] was 327 µg/mL (≈ 0.955 mM) and the solubility at 0.5 h ([6]; Water, initial pH 7.7, 37° C.) was 270 µg/mL (≈ 0.789 mM). The “Stability compared to RP-6306” value ([7]; FaSSIF, FeSSIF, and water, in words) was “more stable than RP-6306”, the “HPLC purity 0.5 h” value [7, 12] was 88.76 %, 220 nm and the “HPLC purity 0.5 h” value [7, 13] was 95.98 %, 220 nm. The “HPLC purity 0.5 h” value ([7]; SGF, initial pH 1.2, 37° C.) was 98.69 %, 220 nm, the “HPLC purity 0.5 h” value ([7]; Water, initial pH 7.7, 37° C.) was 96.4 %, 220 nm and the solubility at 0.5 h ([8]; methanol) was 40600 µg/mL (≈ 118 mM). For the same molecule, the solubility at 0.5 h ([8]; tetrahydrofuran) was 6110 µg/mL (≈ 17.9 mM).

In the case of `COCCc1ccc(OCC(O)CNC(C)C)cc1` (stereo not drawn) [Metoprolol, reference compound], the “Papp Mean” value ([4]; MDCK-MDR1, A-B) is reported as 36.96 10^−6 cm · s^−1, the “Papp Sample - 01” value ([4]; MDCK-MDR1, A-B) is reported as 37.59 10^−6 cm · s^−1 and the “Papp Sample - 02” value ([4]; MDCK-MDR1, A-B) is reported as 36.32 10^−6 cm · s^−1. The “Papp Mean” value ([4]; MDCK-MDR1, B-A) was 20.14 10^−6 cm · s^−1, the “Papp Sample - 01” value ([4]; MDCK-MDR1, B-A) was 20.11 10^−6 cm · s^−1 and the “Papp Sample - 02” value ([4]; MDCK-MDR1, B-A) was 20.17 10^−6 cm · s^−1. The “Papp Mean” value ([9]; A-B) was 24.34 10^−6 cm · s^−1, the “Papp Sample - 01” value ([9]; A-B) was 26.48 10^−6 cm · s^−1 and the “Papp Sample - 02” value ([9]; A-B) was 22.20 10^−6 cm · s^−1. For the same molecule, the “Papp Mean” value ([9]; B-A) was 21.29 10^−6 cm · s^−1, the “Papp Sample - 01” value ([9]; B-A) was 18.61 10^−6 cm · s^−1 and the “Papp Sample - 02” value ([9]; B-A) was 23.97 10^−6 cm · s^−1.
